The source of these data is ChEMBL document CHEMBL2074367, “Characterization of a novel bisacridone and comparison with PSC 833 as a potent and poorly reversible modulator of P-glycoprotein” (Mol Pharmacol, 1997).

The series addresses ATP-dependent translocase ABCB1 (Homo sapiens, UniProt P08183). The series can be described thus: TP_TRANSPORTER: increase in Vinblastine intracellular accumulation (Vinblastine: 0.0375 uM, PBA: 1 uM) in KB8-5 cells. It is filed as functional, cell-based. Conditions: kb8-5, 1 µM.

Chain of ATP-dependent translocase ABCB1 (P08183 whole entry): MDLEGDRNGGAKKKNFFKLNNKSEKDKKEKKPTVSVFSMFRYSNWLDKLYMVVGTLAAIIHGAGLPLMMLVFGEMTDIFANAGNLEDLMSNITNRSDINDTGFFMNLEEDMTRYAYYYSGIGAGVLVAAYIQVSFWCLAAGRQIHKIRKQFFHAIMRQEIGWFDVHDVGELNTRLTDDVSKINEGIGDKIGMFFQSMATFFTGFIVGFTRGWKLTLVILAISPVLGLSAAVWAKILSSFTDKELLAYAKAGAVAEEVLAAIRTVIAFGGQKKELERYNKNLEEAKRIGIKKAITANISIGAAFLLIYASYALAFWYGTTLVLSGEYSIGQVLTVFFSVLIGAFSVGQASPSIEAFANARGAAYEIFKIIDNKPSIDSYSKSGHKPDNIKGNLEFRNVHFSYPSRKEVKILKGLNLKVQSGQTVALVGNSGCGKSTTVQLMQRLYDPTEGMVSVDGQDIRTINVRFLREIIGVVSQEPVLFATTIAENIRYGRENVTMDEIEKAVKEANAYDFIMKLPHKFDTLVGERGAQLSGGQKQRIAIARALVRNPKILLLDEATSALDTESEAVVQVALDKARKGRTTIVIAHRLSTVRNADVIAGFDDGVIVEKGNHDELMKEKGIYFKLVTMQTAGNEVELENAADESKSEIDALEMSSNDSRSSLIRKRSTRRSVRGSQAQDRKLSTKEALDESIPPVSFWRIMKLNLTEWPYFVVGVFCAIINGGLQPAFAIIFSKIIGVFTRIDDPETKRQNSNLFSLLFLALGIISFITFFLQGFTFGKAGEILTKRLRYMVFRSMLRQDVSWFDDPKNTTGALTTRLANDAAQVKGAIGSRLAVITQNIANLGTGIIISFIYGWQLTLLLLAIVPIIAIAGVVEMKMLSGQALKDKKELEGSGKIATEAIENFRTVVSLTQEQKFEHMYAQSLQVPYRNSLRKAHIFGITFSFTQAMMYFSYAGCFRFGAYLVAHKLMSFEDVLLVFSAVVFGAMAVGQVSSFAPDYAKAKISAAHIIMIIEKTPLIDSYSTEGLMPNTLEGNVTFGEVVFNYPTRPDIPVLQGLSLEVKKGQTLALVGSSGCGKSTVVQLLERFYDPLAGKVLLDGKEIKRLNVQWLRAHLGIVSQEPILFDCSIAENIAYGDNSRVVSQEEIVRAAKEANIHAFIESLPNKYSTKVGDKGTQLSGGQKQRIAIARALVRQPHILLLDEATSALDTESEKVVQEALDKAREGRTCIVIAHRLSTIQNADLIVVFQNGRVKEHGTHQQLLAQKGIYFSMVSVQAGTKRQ

Turning to `O=c1c2ccccc2n(CCCn2c3ccccc3c(=O)c3ccccc32)c2ccccc12`, the Inhibition result was “inhibitor [800-900 % inhibition]”.
